Experimental data as given in patent US20250263404A1, “AMINOPYRIDINES AS ACTIVATORS OF PI3 KINASE” (UCL Business Ltd, priority 2021, published 2025).

Target: PI3Kα (Homo sapiens, UniProt P42336)
Experiment: pAKT S473 ELISA in A549 cells (PI3Kα activation)
Type: cell-based
Design: endogenous in cells; host or cells: A549
Conditions: for EC50: A549 cells, 15 min treatment, pAKT S473 ELISA, normalised to Emax of 1 μM insulin, read-out: Av EC50; for Emax at 10 µM: A549, 0.25 h, read-out: <50% response at 10 μM
Procedure: EC50 values were determined by quantifying phosphorylation on S473 residues of Akt in A549 human adenocarcinoma cells by ELISA (enzyme linked immunoadsorbent assay, R&D Systems, DYC887BE). A549 cells were seeded into 96-well plates (50,000 cells/well) in DMEM supplemented with 10% foetal bovine serum and 1% penicillin-streptomyocin. Following 24 h in culture cells were starved for 24 h in serum-free DMEM before 15 minute treatment with a concentration response curve of compounds. Experimental compounds were diluted in DMSO into […] 1:3 concentration response curves in polypropylene V-bottom plates (SLS MIC9050). Concentration response curves were diluted to a 3× stock in serum-free DMEM. Standard 8-point concentration response curves were performed at 50, 16.7, 5.6, 1.9, 0.6, 0.2, 0.07, 0.02 μM and serum-free DMEM containing 0.5% DMSO was used as a negative control. […] A549 cells were seeded at 50,000 cells per well in 96-well plates in DMEM (10% FBS+1% P/S). The next day cells were washed once with PBS before addition of serum-free DMEM for 24 h. On the day of treatment cells, were incubated in fresh serum-free DMEM prior to treatment. Compounds solubilised to 10 mM in DMSO were diluted 1:3 in an 8-point concentration response curve in DMSO. Concentration response curves were diluted in serum-free DMEM by transfer into intermediate plates using a BRAVO liquid handler (Agilent). Intermediate plates were then used to treat cell plates using the BRAVO liquid handler. Compound concentration response curves had atop concentration of 50 μM and a final well concentration of 0.5% DMSO. Cell plates were treated for 15 min at 37° C., 5% CO2 before being washed with ice-cold PBS and lysed in lysis buffer 6 (R&D Systems #895561) and freezing at −80° C. Levels of pAKT-S473 were determined using the phospho-AKT (S473) pan-specific Duoset IC ELISA (R&D Systems #DYC887BE) in 96-well white high-binding plates (Corning #3922) according to manufacturer's instructions. Endpoint luminescence was measured using a Sense (Hidex) platereader. […] Data were transformed and EC50 data were determined by variable slope (4 parameters) non-linear regression using Prism 7 (Graphpad).

Chain of PI3Kα (P42336 whole entry): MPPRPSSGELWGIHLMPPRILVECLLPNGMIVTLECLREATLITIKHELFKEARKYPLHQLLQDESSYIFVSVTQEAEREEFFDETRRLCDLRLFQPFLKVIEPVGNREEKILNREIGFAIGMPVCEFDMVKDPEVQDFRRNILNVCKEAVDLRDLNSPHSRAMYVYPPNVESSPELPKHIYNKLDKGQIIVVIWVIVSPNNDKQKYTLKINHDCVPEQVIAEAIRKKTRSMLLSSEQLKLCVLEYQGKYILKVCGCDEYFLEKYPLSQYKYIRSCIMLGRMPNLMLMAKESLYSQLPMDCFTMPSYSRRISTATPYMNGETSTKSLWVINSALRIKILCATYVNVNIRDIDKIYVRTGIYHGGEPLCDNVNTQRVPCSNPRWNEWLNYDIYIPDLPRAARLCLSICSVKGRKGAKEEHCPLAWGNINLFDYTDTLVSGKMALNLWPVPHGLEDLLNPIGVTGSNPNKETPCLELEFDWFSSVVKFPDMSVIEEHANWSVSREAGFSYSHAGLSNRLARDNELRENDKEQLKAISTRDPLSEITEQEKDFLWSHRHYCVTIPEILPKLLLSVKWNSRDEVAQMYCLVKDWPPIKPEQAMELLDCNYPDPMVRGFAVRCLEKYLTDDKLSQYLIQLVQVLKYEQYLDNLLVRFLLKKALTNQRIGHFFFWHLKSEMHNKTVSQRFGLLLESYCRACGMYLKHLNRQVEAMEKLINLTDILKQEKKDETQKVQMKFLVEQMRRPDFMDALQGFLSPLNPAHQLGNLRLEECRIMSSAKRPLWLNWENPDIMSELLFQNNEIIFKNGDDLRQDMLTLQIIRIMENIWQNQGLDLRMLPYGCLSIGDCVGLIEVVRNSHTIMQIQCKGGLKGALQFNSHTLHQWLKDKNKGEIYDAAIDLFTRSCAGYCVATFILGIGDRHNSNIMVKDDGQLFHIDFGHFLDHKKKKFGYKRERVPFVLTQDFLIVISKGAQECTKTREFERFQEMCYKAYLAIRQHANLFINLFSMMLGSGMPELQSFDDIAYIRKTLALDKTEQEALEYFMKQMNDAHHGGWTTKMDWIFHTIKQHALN
Chain of PI3Kα (P27986 whole entry partner): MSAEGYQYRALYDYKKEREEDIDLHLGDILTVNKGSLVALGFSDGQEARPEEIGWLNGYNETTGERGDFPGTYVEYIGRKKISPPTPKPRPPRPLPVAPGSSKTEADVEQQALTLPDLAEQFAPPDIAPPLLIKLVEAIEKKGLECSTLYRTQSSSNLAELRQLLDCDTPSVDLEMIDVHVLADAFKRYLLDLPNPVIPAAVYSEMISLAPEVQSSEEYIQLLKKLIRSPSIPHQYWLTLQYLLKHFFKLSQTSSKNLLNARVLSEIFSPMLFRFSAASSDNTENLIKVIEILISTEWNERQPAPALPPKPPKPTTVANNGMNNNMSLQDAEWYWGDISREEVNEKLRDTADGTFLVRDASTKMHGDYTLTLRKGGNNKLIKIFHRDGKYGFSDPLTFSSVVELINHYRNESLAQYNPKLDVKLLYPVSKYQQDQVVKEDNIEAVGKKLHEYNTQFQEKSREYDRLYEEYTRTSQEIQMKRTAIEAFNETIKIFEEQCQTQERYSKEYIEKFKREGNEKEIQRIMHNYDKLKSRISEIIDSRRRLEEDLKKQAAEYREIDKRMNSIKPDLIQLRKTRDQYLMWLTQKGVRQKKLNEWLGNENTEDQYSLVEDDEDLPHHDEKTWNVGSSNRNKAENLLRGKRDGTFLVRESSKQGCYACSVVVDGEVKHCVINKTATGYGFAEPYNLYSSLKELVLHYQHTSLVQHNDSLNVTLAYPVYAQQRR

| Compound | EC50 | Emax at 10 µM |
| --- | --- | --- |
| COc1cc(N2CCN(C)CC2)ccc1Nc1cc(Nc2ccc(S(C)(=O)=O)cc2)ccn1 [52 (2038)] | 3810 nM |  |
| CC(=O)N1CCc2cccc(Nc3ccnc(Nc4cc(-c5ccccc5)nn4C)c3)c21 [46 (2023)] | > 50000 nM |  |
| COCC(=O)N1CCc2cccc(Nc3ccnc(Nc4ccc(N5CCN(C)CC5)cc4OC)c3)c21 [17 (1950)] | 4780 nM |  |
| CNC(=O)c1ccccc1Nc1ccnc(Nc2ccc(N3CCOCC3)cc2OC)c1 [9 (1935)] | 1580 nM | < 50% |
| COc1cc(N2CCN(C)CC2)ccc1Nc1cc(Nc2cc(C(C)C)nn2C)ccn1 [30 (2000)] | 4890 nM |  |
| COc1cc(N2CCN(C)CC2)ccc1Nc1cc(Nc2cc(C)cc3c2N(C(C)=O)CC3)ccn1 [19 (1958)] | 1010 nM |  |
| CCOc1cc(N2CCN(C)CC2)ccc1Nc1cc(Nc2cccc3c2N(C(C)=O)CC3)ccn1 [31 (2007)] | 1550 nM |  |
| COc1cc(Nc2cc(Nc3ccn(C)n3)ccn2)cc(OC)c1OC [2 (1903)] | ≥ 50000 nM |  |
| CC(=O)N1CCc2cccc(Nc3ccnc(Nc4ccc5ccccc5n4)c3)c21 [43 (2020)] | > 50000 nM |  |
| CC(=O)N1CCc2cccc(Nc3ccnc(Nc4ccc(C(C)(C)C)cc4)c3)c21 [40 (2017)] | 7400 nM | < 50% |
| CCOCC(=O)N1CCc2cccc(Nc3ccnc(Nc4ccc(N5CCN(C)CC5)cc4OC)c3)c21 [21 (1961)] | 6680 nM |  |
| CNC(=O)c1ccccc1Nc1ccnc(Nc2ccc(N3CCN(C)CC3)cc2OC)c1 [8 (1934)] | > 50000 nM | < 50% |
| COc1cc(Nc2cc(Nc3cnn(C)c3)ccn2)cc(OC)c1OC [4 (1905)] | 2080 nM | < 50% |
| CC(=O)N1CCc2cccc(Nc3ccnc(Nc4ccc(C(N)=O)cc4)c3)c21 [35 (2011)] | 4970 nM |  |
| CC(=O)N1CCc2cccc(Nc3ccnc(Nc4cccc(Oc5ccccc5)c4)c3)c21 [34 (2010)] | > 50000 nM |  |
| CC(=O)N1CCc2cccc(Nc3ccnc(Nc4ccc(N5CCN(C)CC5)cc4C(F)(F)F)c3)c21 [25 (1992)] | > 50000 nM |  |
| COc1cc(N2CCN(C)CC2)ccc1Nc1cc(Nc2ccc3c(c2)CCN3C(C)=O)ccn1 [24 (1989)] | 1250 nM |  |
| COc1cc(N2CCN(C)CC2)ccc1Nc1cc(Nc2cc(-c3ccccc3)nn2C)ccn1 [28 (1995)] | 1410 nM | < 50% |
| COc1cc(N2CCN(C)CC2)ccc1Nc1cc(Nc2ccn(C)n2)ccn1 [3 (1904)] | 9710 nM |  |
| CCC(=O)N1CCc2cccc(Nc3ccnc(Nc4ccc(N5CCN(C)CC5)cc4OC)c3)c21 [20 (1959)] | 2280 nM |  |
| CC(=O)N1CCc2cccc(Nc3ccnc(Nc4ccc(N5CCOCC5)cc4)c3)c21 [38 (2015)] | 1320 nM |  |
| COc1cc(N2CCN(C(C)C)CC2)ccc1Nc1cc(Nc2cccc3c2N(C(C)=O)CC3)ccn1 [14 (1942)] | 2270 nM |  |
| CC(=O)N1CCc2cccc(Nc3ccnc(Nc4ccccc4)c3)c21 [39 (2016)] | > 50000 nM |  |
| COc1cc(N2CCN(C)CC2)ccc1Nc1cc(Nc2cc(C(C)(C)C)nn2C)ccn1 [29 (1998)] | 890 nM |  |
| CC(=O)N1CCc2cccc(Nc3ccnc(Nc4ccc5ncccc5c4)c3)c21 [49 (2028)] | 440 nM | < 50% |
| CC(=O)N1CCc2cccc(Nc3ccnc(Nc4ccc(Oc5ccccc5)cc4)c3)c21 [36 (2013)] | 8810 nM |  |
| CC(=O)N1CCc2cccc(Nc3ccnc(Nc4ccc(N5CCN(C)CC5)cc4OC(C)C)c3)c21 [32 (2008)] | 1460 nM |  |

Second part, the compound after the results:

| EC50 | Emax at 10 µM | Compound |
| --- | --- | --- |
| 14700 nM |  | CC(=O)N1CCc2cccc(Nc3ccnc(Nc4ccc(N5CCN(C)CC5)cc4C)c3)c21 [95 (2351)] |
| > 29000 nM | < 50% | CNC(=O)c1cccc(Nc2ccnc(Nc3ccc4c(c3)CCN4C(C)=O)c2)c1 [86 (2111)] |
| 2780 nM | < 50% | CC(=O)N1CCc2cc(Nc3cc(Nc4cc(C(C)(C)C)nn4C)ccn3)ccc21 [83 (2109)] |
| 17300 nM |  | COc1cc(N2CCN(C)CC2)ccc1Nc1cc(Nc2cccc(-n3cnnc3)c2)ccn1 [66 (2064)] |
| > 50000 nM | < 50% | CNC(=O)c1ccc(Nc2cc(Nc3cc(C(C)C)nn3C)ccn2)cc1 [90 (2117)] |
| 2290 nM |  | COc1cc(C(=O)N2CCOCC2)ccc1Nc1cc(Nc2cccc3c2N(C(C)=O)CC3)ccn1 [91 (2347)] |
| ≥ 50000 nM |  | CCN1CCN(c2ccc(Nc3cc(Nc4ccncn4)ccn3)cc2)CC1 [80 (2106)] |
| > 6120 nM |  | COc1cc(N2CCN(C)CC2)ccc1Nc1cc(Nc2ccncc2)ccn1 [55 (2045)] |
| > 19000 nM | < 50% | CC(=O)N1CCc2cccc(Nc3ccnc(Nc4ccc(C(=O)N(C)C)cc4)c3)c21 [75 (2101)] |
| > 50000 nM |  | CC(=O)N1CCc2cccc(Nc3ccnc(Nc4ccnc5ccccc45)c3)c21 [98 (2355)] |
| 2510 nM |  | COc1cc(N2CCN(C)CC2)ccc1Nc1cc(Nc2cccc(NS(C)(=O)=O)c2)ccn1 [60 (2054)] |
| > 50000 nM | < 50% | COc1cc(N2CCN(C)CC2)ccc1Nc1cc(Nc2cccc3[nH]ccc23)ccn1 [63 (2057)] |
| 390 nM | < 50% | CC(=O)N1CCc2cccc(Nc3ccnc(Nc4cc(C(C)C)nn4C)c3)c21 [70 (2070)] |
| 970 nM |  | COc1cc(N2CCN(C3CC3)CC2)ccc1Nc1cc(Nc2cccc3c2N(C(C)=O)CC3)ccn1 [97 (2354)] |
| > 50000 nM | < 50% | CNC(=O)c1ccc(Nc2cc(Nc3cc(C(C)(C)C)nn3C)ccn2)cc1 [89 (2116)] |
| > 27200 nM | < 50% | CC(=O)N1CCc2cc(Nc3cc(Nc4cc(C(C)C)nn4C)ccn3)ccc21 [85 (2110)] |
| 6540 nM | < 50% | CC(=O)N1CCc2cccc(Nc3ccnc(Nc4cccc5ccncc45)c3)c21 [71 (2071)] |
| 1520 nM |  | CCN1CCN(c2ccc(Nc3cc(Nc4cccc(S(C)(=O)=O)c4)ccn3)cc2)CC1 [82 (2108)] |
| 1580 nM |  | COc1cc(N2CCN(C)CC2)ccc1Nc1cc(Nc2cccnc2)ccn1 [64 (2061)] |
| > 10400 nM |  | CC(=O)N1CCc2cccc(Nc3ccnc(Nc4ccc(C(=O)N5CCOCC5)cc4)c3)c21 [92 (2348)] |

| EC50 | Emax at 10 µM | Compound |
| --- | --- | --- |
| > 50000 nM | < 50% | CC(=O)N1CCc2cc(Nc3cc(Nc4cccc(S(C)(=O)=O)c4)ccn3)ccc21 [88 (2115)] |
| 1980 nM |  | CCN1CCN(c2ccc(Nc3cc(Nc4cccc(C(=O)NC)c4)ccn3)cc2)CC1 [78 (2104)] |
| 5330 nM |  | CCN1CCN(c2ccc(Nc3cc(Nc4cccc(-n5ccnc5)c4)ccn3)cc2)CC1 [81 (2107)] |
| 1550 nM |  | COc1ccc(S(C)(=O)=O)cc1Nc1cc(Nc2cccc3c2N(C(C)=O)CC3)ccn1 [R1 (1888)] |
| > 505 nM | < 50% | COc1cc(N2CC3(COC3)C2)ccc1Nc1cc(Nc2cccc3c2N(C(C)=O)CC3)ccn1 [96 (2353)] |
| 2200 nM |  | CCN1CCN(c2ccc(Nc3cc(Nc4cc(C(C)(C)C)nn4C)ccn3)cc2)CC1 [76 (2102)] |
| 1290 nM | < 50% | COc1cc(N2CCN(C)CC2)ccc1Nc1cc(Nc2cccc3nccnc23)ccn1 [62 (2056)] |
| 1220 nM |  | COc1cc(N2CCN(C)CC2)ccc1Nc1cc(Nc2cccc(S(C)(=O)=O)c2)ccn1 [54 (2043)] |
| 7850 nM |  | COc1cc(N2CCN(C)CC2)ccc1Nc1cc(Nc2ccncn2)ccn1 [53 (2039)] |
| > 50000 nM | < 50% | COc1cc(N2CCN(C)CC2)ccc1Nc1cc(-c2cccc(C(=O)N(C)C)c2)ccn1 [103 (1940)] |
| 8310 nM |  | CCN1CCN(c2ccc(Nc3cc(Nc4ccc(C(=O)NC)cc4)ccn3)cc2)CC1 [79 (2105)] |
| > 50000 nM |  | CC(=O)N1CCc2cccc(Nc3ccnc(Nc4cccc(NS(C)(=O)=O)c4)c3)c21 [101 (2358)] |
| 1080 nM |  | CC(=O)N1CCc2cc(Nc3cc(Nc4cccc5c4N(C(C)=O)CC5)ccn3)ccc21 [72 (2072)] |
| 4560 nM |  | CC(=O)N1CCc2cccc(Nc3ccnc(Nc4ccc(N5CCOCC5)cc4C)c3)c21 [94 (2350)] |
| 1620 nM |  | COc1cc(N2CCN(C)CC2)ccc1Nc1cc(Nc2cccc3c2N(C(C)=O)CC3)c(F)cn1 [R2 (1890)] |
| 2550 nM |  | COc1cc(N2CCN(C)CC2)ccc1Nc1cc(Nc2cccc3c2N(C(C)=O)CC3)ccn1 [R4 (1889)] |
| 1350 nM |  | CNC(=O)c1cccc(Nc2ccnc(Nc3ccc(N4CCN(C)CC4)cc3OC)c2)c1 [58 (2049)] |
| 4780 nM | < 50% | COc1ccccc1Nc1cc(Nc2cccc3c2N(C(C)=O)CC3)ccn1 [99 (2356)] |
| 1960 nM |  | COc1cc(Nc2cc(Nc3cccc4c3N(C(C)=O)CC4)ccn2)cc(OC)c1OC [R3 (1887)] |
